The values that follow come from ChEMBL document CHEMBL1201862, “PubChem BioAssay data set” (2004).

Holding throughout (assay): NCI tumour cell line growth inhibition, 48 h
Experiment [1] relates to M19-MEL.
Experiment [2] relates to KM-20L2.
In experiment [3] the test system is COLO 205.
Experiment [4] has as its system LXFL 529.
Experiment [5] has as its system RXF 393.
The subject of experiment [6] is U-251.
The subject of experiment [7] is SNB-78.
Experiment [8] deals with SK-MEL-5.
The subject of experiment [9] is UACC-257.
Experiment [10] relates to NCI-H226.
Experiment [11] concerns SF-295.
Experiment [12] concerns DMS-273.
Experiment [13] has as its system HCT-15.
Experiment [14] concerns SF-268.
Experiment [15] concerns DU-145.
The subject of experiment [16] is BT-549.
Experiment [17] has as its system MCF7.
The subject of experiment [18] is MDA-MB-231.
In experiment [19] the test system is Hs-578T.

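96-well plates; 48 h exposure; 5 concentrations. Endpoints by linear interpolation between flanking doses. Not reached: highest tested concentration assigned. GI50 is the concentration that inhibits growth by half.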 Active and inactive are the calls of the source. Cut-off read from the data, not from the text of the source: active = GI50 up to about 1.1 µM and inactive = higher. Where only a bound is given, the exact number is not on record here.

As to `O=C(Nc1ccc(Cl)c(Cl)c1)C(=O)C(C(=O)c1ccccc1F)C1OC(=O)c2ccccc21` (centres undefined), the GI50 in experiment [1] was 14.6 µM (inactive); in experiment [2], 23.6 µM (inactive); in experiment [3] it was 16.1 µM (inactive); in experiment [4], 17.6 µM (inactive); in [5] it was 20.7 µM (inactive); in [6], 12.7 µM (inactive). The GI50 in experiment [7] was 11.2 µM (inactive); in experiment [8], 15.9 µM (inactive); in experiment [9], 40.8 µM (inactive); in experiment [10], 17.9 µM (inactive); in [11] it was 37.5 µM (inactive); in experiment [12], 13.2 µM (inactive). Also, the figures for the GI50 in [13] and in [14] were 13.7 µM and 23.7 µM (inactive), respectively.

In the case of `CC1(Br)S(=O)(=O)OCCOS1(=O)=O`, the GI50 in experiment [1], in experiment [2], in experiment [3], in experiment [4], in experiment [5] and in experiment [6] was > 100 µM (inactive) each time. The GI50 in [7], in experiment [8], in experiment [9], in experiment [10], in experiment [11] and in [12] was > 100 µM (inactive) throughout. Also, the results for the GI50 in experiment [13] and in experiment [14] were more than 100 µM and > 100 µM (inactive), respectively.

For the compound `ON(Cc1ccccc1)C(=S)c1ccccc1`, the GI50 in [1] was 6.58 µM (inactive); in experiment [2] it was 4.41 µM (inactive); in [15], 7.38 µM (inactive); in experiment [3], 1.45 µM (inactive); in [4], 1.66 µM (inactive); in experiment [16], 39.2 µM (inactive). Moreover, the GI50 in [5] was 8.97 µM (inactive); in experiment [6], 3.64 µM (inactive); in [7], 31.8 µM (inactive); in experiment [8], 4.47 µM (inactive); in experiment [17], 3.28 µM (inactive); in experiment [9], 4.72 µM (inactive). In addition, the GI50 in experiment [10] was 20.1 µM (inactive); in [11], 3.42 µM (inactive); in experiment [12], 2.62 µM (inactive); in experiment [13], 2.6 µM; in [18], 21.4 µM (inactive); in [14] it was 3.32 µM (inactive). Besides, the GI50 in [19] was > 100 µM (inactive).

As to `COc1ccc(NC(=O)C(=O)NNC(=O)c2sc(NNC(C)=O)nc2C)c([N+](=O)[O-])c1`, the GI50 is > 100 µM (inactive) in [1]; > 100 µM (inactive) in [2]; > 100 µM (inactive) in [3]; 34.8 µM (inactive) in [4]; > 100 µM (inactive) in experiment [6]; > 100 µM (inactive) in [7]. Also, the GI50 in [8] is > 100 µM (inactive); in experiment [9], 81.7 µM (inactive); in experiment [10], > 100 µM (inactive); in experiment [11], > 100 µM (inactive); in experiment [12] it was > 100 µM (inactive); in experiment [13] it was 91.6 µM. Besides, the GI50 in experiment [14] is 51.8 µM (inactive).

Turning to `NCC(Cl)C(O)c1c[nH]c(N)n1` (centres undefined), the GI50 in experiment [1] was 2.52 µM (inactive); in experiment [2], 0.596 µM (active); in [3], 0.306 µM (active); in [5], 1.19 µM (inactive); in experiment [6], 1.03 µM (active); in [7], 9.79 µM (inactive). For the same compound, the GI50 in experiment [8] is 7.33 µM (inactive); in [17], 2.77 µM (inactive); in [9], 3.05 µM (inactive); in [10], 2.15 µM (inactive); in [11], 4.31 µM (inactive); in [12] it was 2.05 µM (inactive). Moreover, the GI50 in experiment [13] is 3.48 µM; in experiment [14] it was 1.38 µM (inactive).

Turning to `COc1cc(C(C)c2cc3c(cc2OCCOCCOc2cc4c(cc2C(C)c2cc(OC)c(OC)c(OC)c2)OCO4)OCO3)cc(OC)c1OC` (centres undefined), the GI50 in experiment [1], in experiment [2], in experiment [3], in experiment [4], in experiment [5] and in experiment [6] was > 10 µM (inactive) each time. In addition, the GI50 was > 10 µM (inactive) in experiment [7]; 89.1 µM (inactive) in experiment [8]; > 10 µM (inactive) in [9]; > 10 µM (inactive) in experiment [10]; 46.7 µM (inactive) in experiment [11]; > 10 µM (inactive) in [12]. Besides, the values for the GI50 in experiment [13] and in experiment [14] were more than 10 µM and > 10 µM (inactive), respectively.

With `CCOC(=O)C1(C#N)C(c2ccccc2)CC(O)(c2ccc(OC)cc2)C(C(=O)c2ccc(OC)cc2)C1c1ccccc1` (centres undefined), the GI50 in experiment [1], in experiment [2], in experiment [3], in [4], in experiment [5] and in [6] was > 100 µM (inactive) each time. The GI50 in experiment [7], in [8], in experiment [9], in experiment [10], in experiment [11] and in [12] was > 100 µM (inactive) each time. Also, the GI50 in experiment [13] was more than 100 µM; in experiment [14], > 100 µM (inactive).

Regarding `CC1CC(c2ccccc2)=Nc2ccccc2S1` (centres undefined), the GI50 is 97.3 µM (inactive) in [1]; > 100 µM (inactive) in [2]; > 100 µM (inactive) in experiment [3]; > 100 µM (inactive) in experiment [4]; > 100 µM (inactive) in [5]; 44.1 µM (inactive) in experiment [6]. In addition, the GI50 in experiment [7], in experiment [8], in [9], in experiment [10], in experiment [11] and in experiment [12] was > 100 µM (inactive) each time. The GI50 was more than 100 µM in experiment [13] and > 100 µM (inactive) in experiment [14].

`COC1=CC(=O)[C@@]2(C)C(C)[C@H](c3ccccc3)[C@H]2C1=O` (some centres undefined): the GI50 in [1], in experiment [2], in experiment [3], in experiment [4], in [5] and in experiment [6] was > 100 µM (inactive) each time. The GI50 in experiment [7] is > 10 µM (inactive); in experiment [8], > 100 µM (inactive); in [9] it was > 100 µM (inactive); in [10] it was > 100 µM (inactive); in experiment [11], > 100 µM (inactive); in [12] it was > 100 µM (inactive). Further, the GI50 is more than 100 µM in [13] and > 100 µM (inactive) in [14].

For the compound `S=C=NCCc1ccccc1` [PHENETHYLISOTHIOCYANATE], the GI50 in [1] is 0.753 µM (active); in experiment [2], 0.729 µM (active); in experiment [3] it was 0.762 µM (active); in experiment [4], 0.212 µM (active); in [5], 0.443 µM (active); in experiment [6] it was 0.794 µM (active). For the same compound, the GI50 in [7] was 0.818 µM (active); in [8], 0.325 µM (active); in experiment [9], 0.885 µM (active); in [10], 1.49 µM (inactive); in experiment [11], 1.57 µM (inactive); in experiment [12] it was 0.255 µM (active). The GI50 was 0.228 µM in experiment [13] and 1.06 µM (active) in [14].
